# Measured values taken from DBAASP.
# Key:
# Test in all cases: ≥ marks a high value that may be exact or a test limit, other limits are often not marked, values filed in µg/mL are converted to µM
# [1] = system: Candida albicans ATCC 90028
# [2] = system: Pseudomonas aeruginosa ATCC 9027
# [3] = system: Staphylococcus aureus USA 100
# [4] = system: Staphylococcus aureus USA 300
# Bacillus subtilis = system: Bacillus subtilis
# [5] = system: Candida albicans ATCC 2002
# [6] = system: Escherichia coli ATCC 25922
# [7] = system: Staphylococcus aureus ATCC 2592
# [8] = system: Cronobacter muytjensii ATCC 51329
# [9] = system: Cronobacter sakazakii ATCC BAA-894
# [10] = system: Cronobacter sakazakii DPC 6440
# [11] = system: Cronobacter sakazakii DSM 4485
# [12] = system: Escherichia coli NCIMB 11843
# [13] = system: Klebsiella pneumoniae NCIMB 13218
# [14] = system: Pseudomonas aeruginosa ATCC 27853
# [15] = system: Pseudomonas fluorescens NCIMB 9046
# [16] = system: Salmonella enterica subsp. enterica serovar Typhimurium LT2
# [17] = system: Staphylococcus aureus NCTC 8325-4
# [18] = system: Staphylococcus aureus Newman
# [19] = system: Staphylococcus aureus RF122
# [20] = system: Staphylococcus aureus RN4220
# [21] = system: Staphylococcus aureus SA113
Structure (SMILES),MIC [3] [µM],MIC [8] [µM],MIC [9] [µM],MIC [10] [µM],MIC [11] [µM],MIC [12] [µM],MIC [13] [µM],MIC [15] [µM],MIC [16] [µM],MIC [17] [µM],MIC [18] [µM],MIC [19] [µM],MIC [20] [µM],MIC [21] [µM],further results
CC[C@H](C)[C@H](NC(=O)[C@H](C)NC(=O)[C@H](CS)NC(=O)[C@@H](NC(=O)[C@@H](NC(=O)[C@@H](NC(=O)CNC(=O)[C@@H](NC(=O)[C@@H](NC(=O)[C@@H](NC(=O)[C@H](C)NC(=O)[C@H](Cc1ccccc1)NC(=O)[C@H](CC(C)C)NC(=O)[C@H](CCCN=C(N)N)NC(=O)[C@H](CCCN=C(N)N)NC(=O)[C@H](CC(C)C)NC(=O)CNC(=O)CNC(=O)[C@@H](NC(=O)[C@@H](N)Cc1ccccc1)[C@@H](C)CC)[C@@H](C)O)C(C)C)C(C)C)[C@@H](C)O)C(C)C)C(C)C)C(=O)N[C@@H](CC(N)=O)C(=O)N[C@@H](CCCCN)C(=O)N[C@@H](CC(C)C)C(=O)NCC(=O)NCC(=O)NCC(=O)O [FIGGLRRLFATVVGTVVCAINKLGGG],–,–,–,–,–,–,–,–,–,–,–,–,–,–,MIC (Bacillus subtilis): ≥ 38.2 µM; MIC [5]: 4.77 µM; MIC [6]: 4.77 µM; MIC [7]: 4.77 µM
CC(C)C[C@H](NC(=O)[C@H](CC(C)C)NC(=O)[C@H](CC(N)=O)NC(=O)[C@H](CCC(=O)O)NC(=O)[C@H](CC(N)=O)NC(=O)[C@H](CC(C)C)NC(=O)[C@@H](N)C(C)C)C(=O)N[C@@H](Cc1cnc[nH]1)C(=O)O [VLNENLLH],–,≥ 1250,≥ 1250,≥ 1250,≥ 1250,≥ 2500,≥ 1250,≥ 1250,≥ 2500,≥ 1250,≥ 1250,≥ 1250,≥ 1250,≥ 1250,MIC [14]: 32 µM
CC(C)C[C@H](NC(=O)[C@H](CC(C)C)NC(=O)[C@H](CC(N)=O)NC(=O)[C@H](C)NC(=O)[C@H](CC(N)=O)NC(=O)[C@H](CC(C)C)NC(=O)[C@@H](N)C(C)C)C(=O)N[C@@H](CCCN=C(N)N)C(=O)O [VLNANLLR],–,≥ 2500,≥ 2500,≥ 1250,≥ 1250,≥ 2500,≥ 2500,≥ 1250,≥ 2500,≥ 1250,≥ 1250,≥ 1250,≥ 1250,≥ 1250,MIC [14]: 32 µM
CC[C@H](C)[C@H](NC(=O)CNC(=O)[C@H](Cc1c[nH]c2ccccc12)NC(=O)[C@H](C)NC(=O)[C@H](CCCCN)NC(=O)[C@H](C)N)C(=O)NCC(=O)NCC(=O)N[C@@H](Cc1cnc[nH]1)C(=O)N[C@H](C(=O)N[C@H](C(=O)NCC(=O)N[C@@H](CCC(N)=O)C(=O)N[C@H](C(=O)N[C@H](C(=O)NCC(=O)N[C@H](C(=O)N[C@@H](CCCN=C(N)N)C(=O)N[C@H](C(=O)N[C@@H](CCCN=C(N)N)C(=O)NCC(=O)N[C@@H](CC(C)C)C(=O)N[C@@H](CS)C(=O)NCC(=O)N[C@@H](CC(N)=O)C(=O)N[C@H](C(=O)O)C(C)C)[C@@H](C)CC)C(C)C)C(C)C)[C@@H](C)CC)[C@@H](C)CC)C(C)C [AKAWGIGGHVIGQIVGVRIRGLCGNV],–,–,–,–,–,–,–,–,–,–,–,–,–,–,MIC [5]: 19 µM; MIC [6]: 9.5 µM; MIC [7]: 4.79 µM
CC[C@H](C)[C@H](N)C(=O)N[C@@H](CCCCN)C(=O)N[C@@H](C)C(=O)N[C@@H](CCC(N)=O)C(=O)NCC(=O)N[C@@H](CC(C)C)C(=O)N1CCC[C@H]1C(=O)N[C@@H](CCC(N)=O)C(=O)N[C@@H](CCC(=O)O)C(=O)O [IKAQGLPQE],–,≥ 2500,≥ 2500,≥ 625,≥ 2500,≥ 1250,≥ 1250,≥ 1250,≥ 1250,≥ 1250,≥ 1250,≥ 1250,≥ 1250,≥ 1250,–
CC[C@H](C)[C@H](N)C(=O)N[C@@H](CCCCN)C(=O)N[C@@H](Cc1cnc[nH]1)C(=O)N[C@@H](CCCN=C(N)N)C(=O)NCC(=O)N[C@@H](CC(C)C)C(=O)N1CCC[C@H]1C(=O)N[C@@H](CCC(N)=O)C(=O)N[C@@H](CCC(=O)O)C(=O)O [IKHRGLPQE],–,≥ 1250,≥ 2500,≥ 312,≥ 2500,≥ 1250,≥ 1250,≥ 2500,≥ 1250,≥ 1250,≥ 1250,≥ 625,≥ 1250,≥ 1250,–
CC(C)C[C@H](NC(=O)CNC(=O)[C@H](Cc1ccccc1)NC(=O)[C@H](CC(C)C)NC(=O)[C@H](CCCN=C(N)N)NC(=O)[C@H](CC(C)C)NC(=O)[C@H](Cc1c[nH]c2ccccc12)NC(=O)CNC(=O)CNC(=O)[C@H](CO)NC(=O)[C@H](CCCCN)NC(=O)[C@H](CC(C)C)NC(=O)[C@H](C)NC(=O)[C@@H](N)CC(C)C)C(=O)N[C@@H](CCCCN)C(=O)N[C@@H](CC(=O)O)C(=O)N[C@@H](CCCCN)C(=O)N[C@@H](CCCCN)C(=O)N[C@@H](Cc1cnc[nH]1)C(N)=O [LALKSGGWLRLFGLKDKKH],–,–,–,–,–,–,–,–,–,–,–,–,–,–,MIC [5]: ≥ 35 µM; MIC [6]: 35 µM; MIC [2]: 9 µM; MIC [7]: 17 µM
CC[C@H](C)[C@H](N)C(=O)N[C@@H](CCCN=C(N)N)C(=O)N[C@@H](Cc1cnc[nH]1)C(=O)N[C@@H](CCC(N)=O)C(=O)NCC(=O)N[C@@H](CC(C)C)C(=O)N1CCC[C@H]1C(=O)N[C@@H](CCC(N)=O)C(=O)N[C@@H](CCC(=O)O)C(=O)O [IRHQGLPQE],–,≥ 1250,≥ 625,≥ 1250,≥ 1250,≥ 1250,≥ 2500,≥ 1250,≥ 2500,≥ 2500,≥ 2500,≥ 625,≥ 2500,≥ 2500,–

# More lines, main results first:
MIC [3] [µM],MIC [8] [µM],MIC [9] [µM],MIC [10] [µM],MIC [11] [µM],MIC [12] [µM],MIC [13] [µM],MIC [15] [µM],MIC [16] [µM],MIC [17] [µM],MIC [18] [µM],MIC [19] [µM],MIC [20] [µM],MIC [21] [µM],Structure (SMILES),further results
25,–,–,–,–,–,–,–,–,–,–,–,–,–,NC(=O)[C@H](Cc1c[nH]c2ccccc12)NC(=O)[C@H](Cc1c[nH]c2ccccc12)NC(=O)[C@H](Cc1c[nH]c2ccccc12)NC(=O)[C@H](CCCN=C(N)N)NC(=O)[C@H](CCCN=C(N)N)NC(=O)[C@@H](N)CCCN=C(N)N [RRRWWW],MIC [1]: ≥ 100 µM; MIC [2]: 50 µM; MIC [4]: 25 µM
12.5,–,–,–,–,–,–,–,–,–,–,–,–,–,NCCCC[C@H](NC(=O)[C@H](Cc1c[nH]c2ccccc12)NC(=O)[C@H](CCCCN)NC(=O)[C@H](Cc1c[nH]c2ccccc12)NC(=O)[C@H](Cc1c[nH]c2ccccc12)NC(=O)[C@H](CCCCN)NC(=O)[C@H](Cc1c[nH]c2ccccc12)NC(=O)[C@@H](N)CCCCN)C(N)=O [KWKWWKWK],MIC [1]: ≥ 100 µM; MIC [2]: 50 µM; MIC [4]: 6.25 µM
≥ 100,–,–,–,–,–,–,–,–,–,–,–,–,–,NCCCC[C@H](NC(=O)[C@H](CCCN=C(N)N)NC(=O)[C@@H](N)CCCCN)C(=O)N[C@@H](CCCN=C(N)N)C(N)=O [KRKR],–
≥ 100,–,–,–,–,–,–,–,–,–,–,–,–,–,NC(=O)[C@H](CCCN=C(N)N)NC(=O)[C@H](Cc1cnc[nH]1)NC(=O)[C@H](CCCN=C(N)N)NC(=O)[C@@H](N)Cc1cnc[nH]1 [HRHR],–
